Assay results as given in ChEMBL document CHEMBL1149193, “Selective optimization of side activities: another way for drug discovery” (J Med Chem, 2004).

Legend:
[1] = species: Mus musculus; assay: animal or person; type: functional; conditions: sc
Description: In vivo inhibitory activity for apomorphine induced climbing in mice, sc

[2] = molecular target: T1, D(4) dopamine receptor (Homo sapiens, UniProt P21917)
T1 sequence (P21917 whole entry): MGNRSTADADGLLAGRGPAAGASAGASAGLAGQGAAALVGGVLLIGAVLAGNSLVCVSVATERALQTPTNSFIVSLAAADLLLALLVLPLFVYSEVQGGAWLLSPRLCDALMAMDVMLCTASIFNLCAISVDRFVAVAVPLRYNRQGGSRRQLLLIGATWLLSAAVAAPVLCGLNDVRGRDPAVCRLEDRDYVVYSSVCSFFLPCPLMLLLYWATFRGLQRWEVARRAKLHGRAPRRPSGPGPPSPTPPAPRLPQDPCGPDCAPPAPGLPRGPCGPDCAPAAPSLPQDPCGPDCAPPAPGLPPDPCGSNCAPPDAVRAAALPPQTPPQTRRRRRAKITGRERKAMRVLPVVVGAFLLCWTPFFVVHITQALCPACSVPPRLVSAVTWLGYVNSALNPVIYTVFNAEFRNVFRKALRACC
Description: Binding affinity towards human Dopamine receptor D4

[3] = molecular target: D(3) dopamine receptor (Homo sapiens, UniProt P35462)
Sequence of D(3) dopamine receptor (P35462 whole entry): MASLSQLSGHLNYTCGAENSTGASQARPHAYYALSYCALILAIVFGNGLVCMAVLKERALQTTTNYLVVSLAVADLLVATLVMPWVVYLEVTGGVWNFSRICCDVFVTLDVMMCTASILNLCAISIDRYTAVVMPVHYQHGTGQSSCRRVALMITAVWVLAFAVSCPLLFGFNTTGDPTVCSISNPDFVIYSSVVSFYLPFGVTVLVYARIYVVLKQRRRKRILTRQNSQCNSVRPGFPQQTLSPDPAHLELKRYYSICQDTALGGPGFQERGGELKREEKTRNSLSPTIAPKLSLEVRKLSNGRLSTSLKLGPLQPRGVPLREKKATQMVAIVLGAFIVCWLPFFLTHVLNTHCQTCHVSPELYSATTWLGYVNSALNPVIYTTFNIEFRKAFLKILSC
Description: Binding affinity against Dopamine receptor D3

[4] = molecular target: T2, Alpha-1A adrenergic receptor (Homo sapiens, UniProt P35348)
T2 sequence (P35348 whole entry): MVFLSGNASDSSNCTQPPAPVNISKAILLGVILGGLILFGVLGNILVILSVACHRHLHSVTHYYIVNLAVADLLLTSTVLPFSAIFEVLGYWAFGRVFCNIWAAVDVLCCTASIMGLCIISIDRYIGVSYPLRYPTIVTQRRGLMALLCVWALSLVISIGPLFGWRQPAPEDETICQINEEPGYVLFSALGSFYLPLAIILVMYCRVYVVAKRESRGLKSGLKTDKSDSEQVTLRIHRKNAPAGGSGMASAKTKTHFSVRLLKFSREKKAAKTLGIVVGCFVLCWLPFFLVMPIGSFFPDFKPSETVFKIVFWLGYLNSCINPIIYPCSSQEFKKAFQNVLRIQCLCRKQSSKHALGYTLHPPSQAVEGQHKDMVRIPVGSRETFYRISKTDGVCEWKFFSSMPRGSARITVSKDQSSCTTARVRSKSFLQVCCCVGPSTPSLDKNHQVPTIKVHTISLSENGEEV
Description: Binding affinity towards recombinant human alpha-1A adrenergic receptor

Row | Ki [2] | Ki [3] | Ki [4] | SMILES | ED50 [1]
1 | 2.1 nM | 21 nM |  | COc1cc(NC(=O)C2CC2)c(Cl)cc1C(=O)NC1CCN(Cc2ccccc2)C1 (centres undefined) | 0.32 mg/kg
2 |  |  | 0.36 nM | COCC1=C(C(=O)OC)[C@H](c2ccc(F)c(F)c2)C(C(=O)NCCCN2CCC(c3ccccn3)CC2)C(=O)N1 (some centres undefined) | 
